Test results taken from US20220145343A1 (priority 2019, published 2022).
“And” between values parts separate entries of the source, which are not always exact repeats. Identical values can stand only once. Marks after values point to notes of the source that are not given here.

Legend:
[1] = tested on: α1-4-galactosyltransferase activity of NmSiaDW; assay: Donor substrate specificity for the α1-4-galactosyltransferase activity of NmSiaDW using different sugar nucleotides (acceptor S3); assay type: biochemical, Neisseria meningitidis; conditions: for Percentage conversion (%): acceptor S3 1 mM, donor 2 mM, 30° C.
Procedure: Galactosyltransferase activity was assayed in reaction buffer (100 mM MES, pH 6.5, 10 mM MgCl2) in the presence of 2 mM UDP-sugars and 1 mM Neu5Acα2-6Galα1-4Neu5AcαProNHCbz in a total volume of 10 μL. Reaction was performed at 30° C. with 0.11 μg NmSiaDW for 10 min or 6.6 μg NmSiaDW for 10 h. Reaction was quenched by addition of 10 μL pre-chilled ethanol and incubated at −20° C. for 30 min. […] GDP-Fuc and CMP-Neu5Ac were also included.
Samples were analyzed using UPLC with EcilpsePlusC18 column or AdvancBio Glycan Map column, Agilent. The samples were further analyzed by electrospray ionization (ESI)-HRMS using a Thermo Electron LTQ-Orbitrap Hybrid MS in a negative mode.

[2] = target: NmSiaDW sialyltransferase activity (Neisseria meningitidis, UniProt O33390); conditions: apparent; varying acceptor, 10 mM CMP-Neu5Ac, pH 8.0, 30° C.
[3] = target: NmCSS (Neisseria meningitidis, UniProt P0A0Z8); assay type: biochemical; conditions: step 1 in the presence of NmCSS (0.75 mg/mL) for 10 h
[4] = tested on: α1-4-galactosyltransferase activity of NmSiaDW; assay type: biochemical, Neisseria meningitidis
[5] = tested on: NmCSS and PmAldolase; assay type: biochemical, Neisseria meningitidis; Pasteurella multocida
[6] = tested on: α2-6-sialyltransferase activity of NmSiaDW; assay type: biochemical, Neisseria meningitidis
[7] = target: NmSiaDW galactosyltransferase activity (Neisseria meningitidis, UniProt O33390); conditions: apparent; varying acceptor, 2 mM UDP-Gal, pH 6.5, 30° C.
NmSiaDW galactosyltransferase activity, sequence (O33390 1-1037): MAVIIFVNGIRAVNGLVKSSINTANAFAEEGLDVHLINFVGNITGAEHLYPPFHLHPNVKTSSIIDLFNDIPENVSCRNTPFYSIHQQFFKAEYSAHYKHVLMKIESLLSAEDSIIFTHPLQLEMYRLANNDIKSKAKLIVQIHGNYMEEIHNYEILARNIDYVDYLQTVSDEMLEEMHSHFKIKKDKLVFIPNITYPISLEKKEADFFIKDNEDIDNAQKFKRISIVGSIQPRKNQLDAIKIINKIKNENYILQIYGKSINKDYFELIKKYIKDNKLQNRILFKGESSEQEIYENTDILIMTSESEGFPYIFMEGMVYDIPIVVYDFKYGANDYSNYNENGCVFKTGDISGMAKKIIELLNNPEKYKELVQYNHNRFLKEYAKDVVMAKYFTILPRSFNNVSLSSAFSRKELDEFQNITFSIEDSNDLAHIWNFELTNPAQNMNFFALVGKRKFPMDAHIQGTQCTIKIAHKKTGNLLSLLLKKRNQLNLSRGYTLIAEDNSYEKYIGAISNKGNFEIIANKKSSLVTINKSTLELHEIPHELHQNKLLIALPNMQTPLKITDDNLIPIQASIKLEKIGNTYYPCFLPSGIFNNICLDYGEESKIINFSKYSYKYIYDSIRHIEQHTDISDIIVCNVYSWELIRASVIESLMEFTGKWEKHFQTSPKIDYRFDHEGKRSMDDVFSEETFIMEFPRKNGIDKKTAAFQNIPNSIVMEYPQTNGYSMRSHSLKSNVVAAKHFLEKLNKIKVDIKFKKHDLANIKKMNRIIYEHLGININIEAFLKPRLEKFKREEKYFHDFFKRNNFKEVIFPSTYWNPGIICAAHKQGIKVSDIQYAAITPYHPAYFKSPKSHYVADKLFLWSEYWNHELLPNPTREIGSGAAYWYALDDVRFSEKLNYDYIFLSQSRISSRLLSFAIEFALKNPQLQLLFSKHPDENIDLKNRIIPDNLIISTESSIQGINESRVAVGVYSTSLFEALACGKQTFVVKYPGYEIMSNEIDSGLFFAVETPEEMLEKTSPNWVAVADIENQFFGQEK

NmCSS, sequence (P0A0Z8 whole entry): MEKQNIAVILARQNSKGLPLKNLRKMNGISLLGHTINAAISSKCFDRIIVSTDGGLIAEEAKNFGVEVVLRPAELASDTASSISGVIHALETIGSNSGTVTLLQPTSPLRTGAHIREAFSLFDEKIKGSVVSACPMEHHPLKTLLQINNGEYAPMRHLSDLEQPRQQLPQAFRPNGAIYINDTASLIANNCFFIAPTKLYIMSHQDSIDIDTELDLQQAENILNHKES
NmSiaDW sialyltransferase activity, sequence (O33390 1-1037): as the sequence (O33390 1-1037) above

Compound: CC(=O)N[C@H]1[C@H]([C@H](O)[C@H](O)CO)O[C@](OP(=O)(O)OC[C@H]2O[C@@H](n3ccc(N)nc3=O)[C@H](O)[C@@H]2O)(C(=O)O)C[C@@H]1O [CMP-Neu5Ac, cytidine-5′-monophosphate Neu5Ac]
- Percentage conversion (%) ([1]; 11 μg/mL NmSiaDW, 10 min): 0%
- Percentage conversion (%) ([1]; 0.66 mg/mL NmSiaDW, 10 h): 0%

Compound: CC(=O)N[C@H]1[C@H]([C@H](O)[C@H](O)CO)O[C@@](OC[C@H]2O[C@H](O[C@H]3C[C@](OCCCNC(=O)OCc4ccccc4)(C(=O)O)O[C@@H]([C@H](O)[C@H](O)CO)[C@@H]3NC(C)=O)[C@H](O)[C@@H](O)[C@H]2O)(C(=O)O)C[C@@H]1O[C@H]1O[C@H](CO)[C@H](O)[C@H](O)[C@H]1O [G4, Galα1-4Neu5Acα2-6Galα1-4Neu5AcαProNHCbz]
- kcat [2]: 23.1 ± 1.1 s⁻¹

Compound: CC(=O)N[C@H]1[C@H]([C@H](O)[C@H](O)CO)O[C@@](OC[C@H]2O[C@H](O[C@H]3C[C@](OC[C@H]4O[C@H](O[C@H]5C[C@](OCCCNC(=O)OCc6ccccc6)(C(=O)O)O[C@@H]([C@H](O)[C@H](O)CO)[C@@H]5NC(C)=O)[C@H](O)[C@@H](O)[C@H]4O)(C(=O)O)O[C@@H]([C@H](O)[C@H](O)CO)[C@@H]3NC(C)=O)[C@H](O)[C@@H](O)[C@H]2O)(C(=O)O)C[C@@H]1O[C@H]1O[C@H](CO)[C@H](O)[C@H](O)[C@H]1O [G6, Galα1(-4Neu5Acα2-6Galα1)2-4Neu5AcαProNHCbz]
- Km [2]: 230 ± 40 µM
- kcat [2]: 11.9 ± 0.5 s⁻¹

Compound: CC(=O)N[C@H]1[C@H]([C@H](O)[C@H](O)CO)O[C@@](OC[C@H]2O[C@H](O[C@H]3C[C@](OC[C@H]4O[C@H](O[C@H]5C[C@](OC[C@H]6O[C@H](O[C@H]7C[C@](OCCCNC(=O)OCc8ccccc8)(C(=O)O)O[C@@H]([C@H](O)[C@H](O)CO)[C@@H]7NC(C)=O)[C@H](O)[C@@H](O)[C@H]6O)(C(=O)O)O[C@@H]([C@H](O)[C@H](O)CO)[C@@H]5NC(C)=O)[C@H](O)[C@@H](O)[C@H]4O)(C(=O)O)O[C@@H]([C@H](O)[C@H](O)CO)[C@@H]3NC(C)=O)[C@H](O)[C@@H](O)[C@H]2O)(C(=O)O)C[C@@H]1O[C@H]1O[C@H](CO)[C@H](O)[C@H](O)[C@H]1O [G8, Galα1(-4Neu5Acα2-6Galα1)3-4Neu5AcαProNHCbz]
- Km [2]: 250 ± 40 µM
- kcat [2]: 10.3 ± 0.5 s⁻¹

Compound: C[C@@H]1O[C@H](OP(=O)(O)OP(=O)(O)OC[C@H]2O[C@@H](n3cnc4c(=O)[nH]c(N)nc43)[C@H](O)[C@@H]2O)[C@@H](O)[C@H](O)[C@@H]1O [GDP-Fucose]
- Percentage conversion (%) ([1]; 11 μg/mL NmSiaDW, 10 min): 0%
- Percentage conversion (%) ([1]; 0.66 mg/mL NmSiaDW, 10 h): 0%

Compound: O=C(O)C(=O)C[C@H](O)[C@@H](O)[C@@H](O)[C@H](O)[C@H](O)CO [Kdn, 2-keto-3-deoxynonulosonic acid]
- Percentage conversion (%) CMP-Sialic acid [3]: Quantitative ^a

Compound: CC(=O)NC1C(OCCCCl)OC(CO)C(O)C1OC1OC(CO)C(O)C(OC2(C(=O)O)CC(O)C(N=[N+]=[N-])C(C(N=[N+]=[N-])C(C)O)O2)C1O (stereo not drawn) [Leg5,7diN3α2-3Galβ1-3GalNAcβProCl]
- Product [4]: √

Compound: CC(=O)N[C@@H]1C(O)O[C@H](CO)[C@@H](N=[N+]=[N-])[C@@H]1O (stereo partly shown) [ManNAc4N3, 4-azido-4-deoxy-N-acetylmannosamine]
- Percentage conversion (%) CMP-Sialic acid [5]: 90 ± 3 ^b %

Compound: CC(=O)N[C@H]1[C@H]([C@H](O)[C@H](O)CO)OC(O)(C(=O)O)C[C@@H]1OC(C)=O (stereo partly shown) [Neu4,5Ac, 4-O-acetyl-N-acetylneuraminic acid]
- Percentage conversion (%) Transferase Reaction [6]: 0%
- Percentage conversion (%) CMP-Sialic acid [3]: 53 ± 1 ^a %

Compound: CC(=O)N[C@H]1[C@H]([C@H](O)[C@H](O)COC(C)=O)OC(O)(C(=O)O)C[C@@H]1O (stereo partly shown) [Neu5,9Ac, 9-O-acetyl-N-acetylneuraminic acid]
- Percentage conversion (%) Transferase Reaction [6]: 0%
- Percentage conversion (%) CMP-Sialic acid [3]: 61 ± 2 ^a %

Compound: CO[C@H](CO)[C@@H](O)[C@@H]1OC(O)(C(=O)O)C[C@H](O)[C@H]1NC(C)=O (stereo partly shown) [Neu5Ac8OMe, 8-O-methyl-N-acetylneuraminic acid]
- Percentage conversion (%) CMP-Sialic acid [3]: 79 ± 1 ^a %

Compound: CC(=O)N[C@H]1[C@H]([C@H](O)[C@H](O)CO)OC(O)(C(=O)O)C[C@@H]1O (stereo partly shown) [Neu5Ac, N-acetylneuraminic acid]
- Percentage conversion (%) CMP-Sialic acid [3]: Quantitative ^a

Compound: CC(=O)NC1C(O)CC(OC2C(O)C(CO)OC(OC3C(O)C(CO)OC(OCCCN=[N+]=[N-])C3NC(C)=O)C2O)(C(=O)O)OC1C(O)C(O)CO (stereo not shown) [Neu5Acα2-3Galβ1-3GalNAcβProN3]
- Product [4]: √
- acceptor substrate suitability in words [4]: could also tolerate

Compound: CC(=O)NC1C(O)CC(OCC2OC(OCCCN)C(O)C(O)C2O)(C(=O)O)OC1C(O)C(O)CO (stereo not shown) [Neu5Acα2-6GalβProNH2]
- Product [4]: √

Compound: CC(=O)N[C@H]1[C@H]([C@H](O)[C@H](O)CO)OC(OC[C@H]2O[C@@H](Oc3ccc([N+](=O)[O-])cc3)[C@H](O)[C@@H](O)[C@H]2O)(C(=O)O)C[C@@H]1O (stereo partly shown) [Neu5Acα2-6GalβpNP]
- Product [4]: √

Compound: O=C(CO)N[C@H]1[C@H]([C@H](O)[C@H](O)CO)OC(O)(C(=O)O)C[C@@H]1O (stereo partly shown) [Neu5Gc, N-glycolylneuraminic acid]
- Percentage conversion (%) Transferase Reaction [6]: 47 ± 3% and 88 ± 3%
- Percentage conversion (%) CMP-Sialic acid [3]: 90 ± 2 ^a %

Compound: CC(=O)N[C@H]1[C@H]([C@H](O)[C@H](O)CO)O[C@@](OCCCNC(=O)OCc2ccccc2)(C(=O)O)C[C@@H]1O[C@H]1O[C@H](CO[C@]2(C(=O)O)C[C@H](O[C@H]3O[C@H](CO[C@]4(C(=O)O)C[C@H](O[C@H]5O[C@H](CO[C@]6(C(=O)O)C[C@H](O)[C@@H](NC(C)=O)[C@H]([C@H](O)[C@H](O)CO)O6)[C@H](O)[C@H](O)[C@H]5O)[C@@H](NC(C)=O)[C@H]([C@H](O)[C@H](O)CO)O4)[C@H](O)[C@H](O)[C@H]3O)[C@@H](NC(C)=O)[C@H]([C@H](O)[C@H](O)CO)O2)[C@H](O)[C@H](O)[C@H]1O [S7, Neu5Acα2(-6Galα1-4Neu5Acα2)3-ProNHCbz]
- Km [7]: 70 ± 10 µM
- kcat [7]: 5.5 ± 0.2 s⁻¹

Compound: O=C(O)[C@H]1O[C@H](OP(=O)(O)OP(=O)(O)OC[C@H]2O[C@@H](n3ccc(=O)[nH]c3=O)[C@H](O)[C@@H]2O)[C@H](O)[C@@H](O)[C@H]1O [UDP-GalA]
- Percentage conversion (%) ([1]; 11 μg/mL NmSiaDW, 10 min): 0%
- Percentage conversion (%) ([1]; 0.66 mg/mL NmSiaDW, 10 h): <1%

Compound: CC(=O)N[C@H]1[C@@H](OP(=O)(O)OP(=O)(O)OC[C@H]2O[C@@H](n3ccc(=O)[nH]c3=O)[C@H](O)[C@@H]2O)O[C@H](CO)[C@H](O)[C@@H]1O [UDP-GalNAc]
- Percentage conversion (%) ([1]; 11 μg/mL NmSiaDW, 10 min): 0%
- Percentage conversion (%) ([1]; 0.66 mg/mL NmSiaDW, 10 h): 1.9 ± 0.2%
- donor substrate quality in words ([1]; compared to UDP-Gal, acceptor S3): tolerated as poor donor substrate

Compound: O=C(O)[C@H]1O[C@H](OP(=O)(O)OP(=O)(O)OC[C@H]2O[C@@H](n3ccc(=O)[nH]c3=O)[C@H](O)[C@@H]2O)[C@H](O)[C@@H](O)[C@@H]1O [UDP-GlcA]
- Percentage conversion (%) ([1]; 11 μg/mL NmSiaDW, 10 min): 0%
- Percentage conversion (%) ([1]; 0.66 mg/mL NmSiaDW, 10 h): 0%

Compound: CC(=O)N[C@H]1[C@@H](OP(=O)(O)OP(=O)(O)OC[C@H]2O[C@@H](n3ccc(=O)[nH]c3=O)[C@H](O)[C@@H]2O)O[C@H](CO)[C@@H](O)[C@@H]1O [UDP-GlcNAc]
- Percentage conversion (%) ([1]; 11 μg/mL NmSiaDW, 10 min): 0%
- Percentage conversion (%) ([1]; 0.66 mg/mL NmSiaDW, 10 h): 0%

Compound: CC(=O)N[C@@H]1[C@@H](OP(=O)(O)OP(=O)(O)OC[C@H]2O[C@@H](n3ccc(=O)[nH]c3=O)[C@H](O)[C@@H]2O)O[C@H](CO)[C@@H](O)[C@@H]1O [UDP-ManNAc]
- Percentage conversion (%) ([1]; 11 μg/mL NmSiaDW, 10 min): 0%
- Percentage conversion (%) ([1]; 0.66 mg/mL NmSiaDW, 10 h): 0%

Compound: Leg5,7Ac2α2-3Galβ1-3GalNAcβProN3
- Product [4]: Not Detected

Compound: Neu5Ac7N3α2-6Galα1-4Neu5AcαProNHCbz
- Product [4]: √

Compound: Neu5Ac9N3α2-6Galα1-4Neu5AcαProNHCbz
- Product [4]: √
